Assay results taken from patent publication US20250186556A1, “COMBINATION THERAPY WITH IMMUNOMODULATORS, DYRK1A INHIBITORS, AND GLP1R AGONISTS FOR TYPE 1 DIABETES TREATMENT” (ICAHN SCHOOL OF MEDICINE AT MOUNT SINAI, priority 2022, published 2025).

Key:
human β-cells [1] = test: Analysis of human β-cell death in vitro (TUNEL/insulin staining); assay type: cell-based; details: 10 μM harmine, 10 nM exendin-4, 24 hours, TUNEL
Protocol: Briefly, after washing the human islets with PBS twice, 200 μl pre-warmed Accutase (Corning) was added, and the tube was incubated at 37° C. for 10 minutes. Then, complete RPMI medium (RPMI with 5 mM D-glucose, 10% FBS, 100 units/ml penicillin, and 100 μg/ml streptomycin) was added, the sample was centrifuged at 1000 rpm for three min, the pellet was washed with PBS and centrifuged again at 1000 rpm for three min. The pellet was resuspended in complete RPMI medium and 50,000 cells/well were plated on 12-mm glass coverslips, placed in 24-well plates, and incubated at 37° C. and 5% CO2 for 24 hours. […] Cells were incubated at 37° C. and 5% CO2 for 24 hours. Then, cells were fixed in 4% paraformaldehyde and TUNEL (cell death marker) and insulin staining were performed using the DeadEnd Fluorometric TUNEL System (Promega), anti-proinsulin/C-peptide antibody (DSHB), and DAPI for nuclei detection. A minimum of 1,500 β-cells were examined per coverslip.

human β-cells [2] = test: Human islet single cell RNA sequencing (scRNA-seq), gene set enrichment in β-cells; assay type: cell-based; details: human islets, 10 μM harmine, 10 nM exendin-4, 6 h
Protocol: After treatment, human islets were washed twice with PBS and centrifuged at 300 rpm for three min. After removing the PBS, 200 μl pre-warmed Accutase was added and the islets were incubated at 37° C. for 10 minutes. Then, complete RPMI medium was added, the sample centrifuged at 1000 rpm for three min, and the pellet was washed with PBS. Cells were then resuspended in binding buffer (Miltenyi Biotec) and dead cell removal beads, the tube was incubated for 15 minutes at room temperature and the cell suspension applied onto the dead cell removal column (Miltenyi Biotec), which was attached to the MACS separator. […]
Cell samples were prepared according to the user guide of 10× Genomics Single Cell 3′ V3.1 Reagent Kit, processed with 10× Genomic Chromium Controller for partitioning and barcoding, followed by the cDNA library generation. The total cell concentration analyzed by the Countess 3 was then sequenced by the NovaSeq 6000 System (Illumina). […] After the 10×, h5 format file was generated, the data were analyzed on the R language platform with Seurat package V.4.0. […]
After assessment of the data quality control parameters as above, integrated scRNA-data were created with Seurat's SCTransform function without allocating method parameters. […] After enrichment scores were calculated for each single cell, they were added to the Meta data for analysis and visualization by dotplot.

[3] = test system: patients with new-onset type 1 diabetes; details: for up to seven years following initial diagnosis; cited from earlier work

Compound	human β-cell death induced by thapsigargin (human β-cells [1]; 500 nM thapsigargin)	human β-cell death induced by cytokines (human β-cells [1]; cytokines IL-1β, TNF-α, IFN-γ)	inhibitory HLA-E expression in β-cells treated with cytokines (human β-cells [2])	expression of pro-inflammatory, intrinsic and extrinsic apoptosis, HLA class I, chemokines CXCL9-11 and interferon regulatory factor 1-9 signaling pathways in β-cells treated with cytokines (human β-cells [2]; GSEA)	loss of β-cell function [3]
COc1ccc2c(c1)[nH]c1c(C)nccc12 [harmine]	non-significant, partial protection	non-significant, partial protection	increased	not with the drugs alone	–
teplizumab: humanized, non-mitogenic aglycosylated anti-CD3 monoclonal antibody	–	–	–	–	reduces the loss of β-cell function
